Test results taken from US9120812B2, “Pyrimidooxazocine derivatives as mTOR-inhibitors” (SANOFI, priority 2012, dated 2015).

Legend:
[1] = molecular target: mTOR (human recombinant aa mTOR 1360-2549) (Homo sapiens (Human), UniProt P42345); assay: mTOR enzymatic test by TR-FRET (phosphorylation of GFP-4EBP1); assay type: biochemical
Description: Model 1: mTOR Enzymatic Test by TR-FRET (Time-resolved Fluorescence Resonance Energy Transfer).
The test detects the phosphorylation of the substrate GFP-4EBP1 using a terbium-labelled antibody that is specific for the phospho-Thr46 epitope. Binding of the Tb-antibody to the phosphorylated GFP peptide allows the transfer of energy from Tb, excited at 340 nm, to GFP with an increase in the fluorescence emission of the GFP at 520 nm. […] The mixture is incubated for 30 minutes at room temperature. 10 μl of solution are taken up and the reaction is quenched by adding 10 μl of Tb-antibody solution (Invitrogen PV4757)/EDTA (2 nM Tb-Ac and 10 mM EDTA final). After 60 minutes at room temperature, the fluorescence at 490 nm, from the Tb emission, and at 520 nm, from the GFP emission, is measured in a BMG PHERAstar reader equipped with a Lanthascreen™ filter (excitation at 340 nm, emission at 490 and 520 nm). The results are given in the form of the 520/490 ratio.

[2] = test system: U87MG tumour cells; assay: Test of in vitro proliferation of U87MG tumour cells; assay type: cell-based; conditions: Homo sapiens, U-87 MG, 72 h, U87MG cells, 72 hours; read-out: U87 Cell Proliferation IC50
Description: Model 4: Test of in vitro Proliferation of U87MG Tumour Cells.
The cell growth is determined with the reagent CellTiter 96 AQueous One Solution Cell Proliferation Assay from Promega (Cat. No. G3581).

[3] = test system: Akt-pS473 in U87MG cells; conditions: Homo sapiens, U-87 MG, read-out: U87 Akt-pS473 % Inhibition or IC50, nM (IC50), U87MG cells
[4] = molecular target: PI3Kα (p110α/p85α) (Homo sapiens (Human), UniProt P42336); assay: PI3Kα enzymatic test by measuring the consumption of ATP; assay type: biochemical
Chain of PI3Kα (p110α/p85α) (P42336 whole entry): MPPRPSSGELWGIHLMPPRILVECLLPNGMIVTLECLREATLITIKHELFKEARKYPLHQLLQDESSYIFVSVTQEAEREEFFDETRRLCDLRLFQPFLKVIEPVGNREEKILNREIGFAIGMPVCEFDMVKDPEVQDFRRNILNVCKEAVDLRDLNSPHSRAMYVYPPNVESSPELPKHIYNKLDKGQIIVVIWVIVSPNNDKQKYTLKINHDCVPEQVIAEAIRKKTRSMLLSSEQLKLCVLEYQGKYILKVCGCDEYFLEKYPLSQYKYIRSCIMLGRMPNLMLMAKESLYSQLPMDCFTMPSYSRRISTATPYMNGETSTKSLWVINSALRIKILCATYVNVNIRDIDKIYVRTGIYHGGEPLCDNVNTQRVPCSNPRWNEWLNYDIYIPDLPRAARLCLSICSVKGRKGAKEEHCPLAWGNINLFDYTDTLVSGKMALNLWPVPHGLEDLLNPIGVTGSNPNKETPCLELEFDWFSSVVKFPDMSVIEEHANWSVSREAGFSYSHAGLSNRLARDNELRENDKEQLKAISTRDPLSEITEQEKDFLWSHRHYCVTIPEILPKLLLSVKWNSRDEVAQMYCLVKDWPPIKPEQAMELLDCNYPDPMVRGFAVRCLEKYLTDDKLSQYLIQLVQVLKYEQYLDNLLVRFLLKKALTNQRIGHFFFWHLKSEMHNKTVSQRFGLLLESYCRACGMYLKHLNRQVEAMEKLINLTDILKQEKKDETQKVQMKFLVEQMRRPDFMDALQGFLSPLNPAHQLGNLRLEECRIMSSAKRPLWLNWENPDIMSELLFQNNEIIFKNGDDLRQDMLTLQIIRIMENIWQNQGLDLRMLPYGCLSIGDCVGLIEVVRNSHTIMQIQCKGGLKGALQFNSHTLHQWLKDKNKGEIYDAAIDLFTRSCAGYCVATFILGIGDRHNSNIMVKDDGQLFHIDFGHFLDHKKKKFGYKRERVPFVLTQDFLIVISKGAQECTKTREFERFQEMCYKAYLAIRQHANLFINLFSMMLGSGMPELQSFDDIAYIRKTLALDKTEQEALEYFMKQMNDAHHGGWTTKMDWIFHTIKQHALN
Chain of PI3Kα (p110α/p85α) (P27986 whole entry partner): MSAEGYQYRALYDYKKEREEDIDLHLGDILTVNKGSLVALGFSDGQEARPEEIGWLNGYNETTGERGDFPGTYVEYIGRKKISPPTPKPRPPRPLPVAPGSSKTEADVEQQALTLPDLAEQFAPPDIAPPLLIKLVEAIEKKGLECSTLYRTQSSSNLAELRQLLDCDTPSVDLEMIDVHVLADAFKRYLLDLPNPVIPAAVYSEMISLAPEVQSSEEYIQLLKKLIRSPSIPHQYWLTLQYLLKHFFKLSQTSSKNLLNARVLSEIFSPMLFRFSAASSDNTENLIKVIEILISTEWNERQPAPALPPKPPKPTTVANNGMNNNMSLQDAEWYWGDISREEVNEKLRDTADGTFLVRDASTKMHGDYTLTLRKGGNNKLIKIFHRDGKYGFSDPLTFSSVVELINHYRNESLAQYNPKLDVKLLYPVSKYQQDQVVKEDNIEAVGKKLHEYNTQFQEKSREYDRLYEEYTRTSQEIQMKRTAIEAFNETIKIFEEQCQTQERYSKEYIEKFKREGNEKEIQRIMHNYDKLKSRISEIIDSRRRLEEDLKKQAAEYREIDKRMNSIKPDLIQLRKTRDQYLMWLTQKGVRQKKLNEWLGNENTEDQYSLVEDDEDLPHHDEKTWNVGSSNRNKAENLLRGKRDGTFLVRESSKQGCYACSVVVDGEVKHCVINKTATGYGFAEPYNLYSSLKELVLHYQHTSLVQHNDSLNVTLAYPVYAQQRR
Description: Model 2: PI3Kα Enzymatic Test by Measuring the Consumption of ATP.
The test uses a lucifeurerin/luciferase system to measure the concentration of ATP and its consumption during the enzymatic reaction. The test is performed in 96-well format (Corning/Costar 96 black flat-bottomed half-wells plate, ref. 3694) in a total volume of 30 μl.
To 1 μl of inhibitor in 100% DMSO are added (final concentrations) 50 μM of the substrate PIP2 ((L-α-phosphatidyl-D-myoinositol 4,5-bisphosphate, Echelon 117P-4516-0500), 2 μM of ATP and 1.7 μg/ml of PI3Kα, (p110α/p85α, Invitrogen PV4788) in a buffer of Tris/HCl 50 mM pH 7.5, EGTA 1 mM, MgCl2 10 mM, Chaps 0.03%, 1 mM DTT). After 90 minutes, the reaction is quenched by adding 20 μl/well of KinaseGlo reagent (Promega V6713). After 10 minutes in the dark, the luminescence is read on the PHERAStar microplate reader (reading at 0.8 sec/well).
The IC50 values are determined by the preparation of successive threefold dilutions on at least a scale of 10 000.

Chain of mTOR (human recombinant aa mTOR 1360-2549) (P42345 1360-2549): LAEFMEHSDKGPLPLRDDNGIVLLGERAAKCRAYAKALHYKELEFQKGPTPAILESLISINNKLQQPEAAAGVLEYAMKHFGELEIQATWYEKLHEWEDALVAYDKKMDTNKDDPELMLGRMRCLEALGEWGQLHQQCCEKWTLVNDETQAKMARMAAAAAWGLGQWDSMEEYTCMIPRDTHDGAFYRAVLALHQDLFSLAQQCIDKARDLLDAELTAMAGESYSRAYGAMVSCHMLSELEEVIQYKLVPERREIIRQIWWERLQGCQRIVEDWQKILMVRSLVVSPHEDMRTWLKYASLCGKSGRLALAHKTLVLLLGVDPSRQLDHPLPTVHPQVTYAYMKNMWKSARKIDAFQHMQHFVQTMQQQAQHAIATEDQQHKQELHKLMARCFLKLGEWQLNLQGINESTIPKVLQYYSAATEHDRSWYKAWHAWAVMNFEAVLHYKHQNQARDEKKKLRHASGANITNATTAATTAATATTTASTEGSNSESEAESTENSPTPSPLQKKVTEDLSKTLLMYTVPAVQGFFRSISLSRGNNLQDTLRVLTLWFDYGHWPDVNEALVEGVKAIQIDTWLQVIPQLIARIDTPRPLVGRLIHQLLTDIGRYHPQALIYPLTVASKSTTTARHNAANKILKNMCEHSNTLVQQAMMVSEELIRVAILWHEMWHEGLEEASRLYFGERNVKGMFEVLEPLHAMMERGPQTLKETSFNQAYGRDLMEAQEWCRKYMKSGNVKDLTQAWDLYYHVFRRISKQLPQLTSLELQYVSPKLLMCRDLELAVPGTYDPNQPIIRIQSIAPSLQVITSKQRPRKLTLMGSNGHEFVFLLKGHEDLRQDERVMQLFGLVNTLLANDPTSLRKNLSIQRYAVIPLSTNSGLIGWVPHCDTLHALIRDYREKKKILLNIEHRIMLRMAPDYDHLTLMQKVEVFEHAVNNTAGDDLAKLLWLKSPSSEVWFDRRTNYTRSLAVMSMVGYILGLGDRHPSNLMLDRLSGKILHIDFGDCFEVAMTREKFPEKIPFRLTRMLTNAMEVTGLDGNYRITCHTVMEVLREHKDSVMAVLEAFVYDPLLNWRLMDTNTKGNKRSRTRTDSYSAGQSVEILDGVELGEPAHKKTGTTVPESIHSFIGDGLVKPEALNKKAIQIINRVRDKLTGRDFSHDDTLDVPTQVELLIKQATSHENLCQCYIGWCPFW

CCN1CC(C)(C)Oc2nc(N3CC4CCC(C3)O4)nc(-c3ccc(NC(=O)NC)c(F)c3)c2C1=O [Example 1, 1-{4-[6-Ethyl-8,8-dimethyl-2-(8-oxa-3-azabicyclo[3.2.1]oct-3-yl)-5-oxo-5,6,7,8-tetrahydro-9-oxa-1,3,6-triazabenzocyclohepten-4-yl]-2-fluorophenyl}-3-methylurea]
IC50 [1]: 23 nM | IC50 [2]: 197 nM | IC50 [3]: 55 nM | PI3Ka IC50 [4]: 8841 nM

CCN1CC(C)(C)Oc2nc(N3CCOC[C@@H]3C)nc(-c3ccc(NC(=O)NC)c(F)c3)c2C1=O [Example 2, 1-{4-[6-Ethyl-8,8-dimethyl-2-((S)-3-methylmorpholin-4-yl)-5-oxo-5,6,7,8-tetrahydro-9-oxa-1,3,6-triazabenzocyclohepten-4-yl]-2-fluorophenyl}-3-methylurea]
IC50 [1]: 22 nM | IC50 [2]: 142 nM | IC50 [3]: 31 nM | PI3Ka IC50 [4]: 547 nM

CCNC(=O)Nc1ccc(-c2nc(N3CCOC[C@@H]3C)nc3c2C(=O)N(CC)CC(C)(C)O3)cc1F [Example 3, 1-Ethyl-3-{4-[6-ethyl-8,8-dimethyl-2-((S)-3-methylmorpholin-4-yl)-5-oxo-5,6,7,8-tetrahydro-9-oxa-1,3,6-triazabenzocyclohepten-4-yl]-2-fluorophenyl}urea]
IC50 [1]: 18 nM | IC50 [2]: 242 nM | IC50 [3]: 48 nM | PI3Ka IC50 [4]: 2110 nM

CCNC(=O)Nc1ccc(-c2nc(N3CC4CCC(C3)O4)nc3c2C(=O)N(C[C@@H]2CCCN2)CC(C)(C)O3)cc1F [Example 4, 1-{4-[8,8-Dimethyl-2-(8-oxa-3-azabicyclo[3.2.1]oct-3-yl)-5-oxo-6-(S)-1-pyrrolidin-2-ylmethyl-5,6,7,8-tetrahydro-9-oxa-1,3,6-triazabenzocyclohepten-4-yl]-2-fluorophenyl}-3-ethylurea]
IC50 [1]: 721 nM | IC50 [2]: > 10000 nM | IC50 [3]: > 3000 nM | PI3Ka IC50 [4]: >10000 nM

CCNC(=O)Nc1ccc(-c2nc(N3CC4CCC(C3)O4)nc3c2C(=O)N(CCC(=O)O)CC(C)(C)O3)cc1 [Example 7, 3-[4-[4-(3-Ethylureido)phenyl]-8,8-dimethyl-2-(8-oxa-3-azabicyclo[3.2.1]oct-3-yl)-5-oxo-7,8-dihydro-5H-9-oxa-1,3,6-triazabenzocyclohepten-6-yl]propionic acid]
IC50 [1]: 17 nM | IC50 [2]: > 10000 nM | IC50 [3]: > 3000 nM | PI3Ka IC50 [4]: >10000 nM

CCNC(=O)Nc1ccc(-c2nc(N3CC4CCC(C3)O4)nc3c2C(=O)N(CCC(=O)N(C)C)CC(C)(C)O3)cc1 [Example 8, 3-[4-[4-(3-ethylureido)phenyl]-8,8-dimethyl-2-(8-oxa-3-azabicyclo[3.2.1]oct-3-yl)-5-oxo-7,8-dihydro-5H-9-oxa-1,3,6-triazabenzocyclohepten-6-yl]-N,N-dimethylpropionamide]
IC50 [1]: 44 nM | IC50 [2]: 3810 nM | IC50 [3]: 537 nM | PI3Ka IC50 [4]: >10000 nM

CCNC(=O)Nc1ccc(-c2nc(N3CC4CCC(C3)O4)nc3c2C(=O)N(CC)CC(C)(C)CO3)cc1 [Example 10, 1-Ethyl-3-{4-[6-ethyl-8,8-dimethyl-2-(8-oxa-3-azabicyclo[3.2.1]oct-3-yl)-5-oxo-6,7,8,9-tetrahydro-5H-10-oxa-1,3,6-triazabenzocycloocten-4-yl]phenyl}urea]
IC50 [1]: 344 nM | IC50 [2]: 8770 nM | IC50 [3]: 611 nM | PI3Ka IC50 [4]: >10000 nM

CCN1CC(C)(C)Oc2nc(N3CCOC[C@@H]3C)nc(-c3ccc(NC(=O)NC)cc3F)c2C1=O [Example 11, 1-{4-[6-ethyl-8,8-dimethyl-2-((S)-3-methylmorpholin-4-yl)-5-oxo-5,6,7,8-tetrahydro-9-oxa-1,3,6-triazabenzocyclohepten-4-yl]-3-fluorophenyl}-3-methylurea]
IC50 [1]: 13 nM | IC50 [2]: 271 nM | IC50 [3]: 61 nM | PI3Ka IC50 [4]: 2300 nM

CCN1CC(C)(C)Oc2nc(N3CCOC[C@@H]3C)nc(-c3ccc(NC(=O)Nc4ccncc4)cc3F)c2C1=O [Example 12, 1-{4-[6-ethyl-8,8-dimethyl-2-((S)-3-methylmorpholin-4-yl)-5-oxo-5,6,7,8-tetrahydro-9-oxa-1,3,6-triazabenzocyclohepten-4-yl]-3-fluorophenyl}-3-pyridin-4-ylurea]
IC50 [1]: 17 nM | IC50 [2]: 121 nM | IC50 [3]: 43 nM | PI3Ka IC50 [4]: 640 nM

CCN1CC(C)(C)Oc2nc(N3CC4CCC(C3)O4)nc(-c3ccc(NC(=O)Nc4ccc(N5CCN(C)CC5)cc4)c(F)c3)c2C1=O [Example 13, 1-{4-[6-ethyl-8,8-dimethyl-2-(8-oxa-3-azabicyclo[3.2.1]oct-3-yl)-5-oxo-5,6,7,8-tetrahydro-9-oxa-1,3,6-triazabenzocyclohepten-4-yl]-2-fluorophenyl}-3-[4-(4-methylpiperazin-1-yl)phenyl]urea]
IC50 [1]: 132 nM | IC50 [2]: 32 nM | IC50 [3]: 13 nM | PI3Ka IC50 [4]: 6470 nM

CCNC(=O)Nc1ccc(-c2nc(N3CC4CCC(C3)O4)nc3c2C(=O)N(C2CCOCC2)CC(C)(C)O3)cc1 [Example 14, 1-{4-[8,8-dimethyl-2-(8-oxa-3-azabicyclo[3.2.1]oct-3-yl)-5-oxo-6-(tetrahydropyran-4-yl)-5,6,7,8-tetrahydro-9-oxa-1,3,6-triazabenzocyclohepten-4-yl]phenyl}-3-ethylurea]
IC50 [1]: 41 nM | IC50 [2]: 1420 nM | IC50 [3]: 458 nM | PI3Ka IC50 [4]: >10000 nM

Cc1cc(NC(=O)Nc2ccc(-c3nc(N4CC5CCC(C4)O5)nc4c3C(=O)N(C3CCOCC3)CC(C)(C)O4)cc2)no1 [Example 15, 1-{4-[8,8-dimethyl-2-(8-oxa-3-azabicyclo[3.2.1]oct-3-yl)-5-oxo-6-(tetrahydropyran-4-yl)-5,6,7,8-tetrahydro-9-oxa-1,3,6-triazabenzocyclohepten-4-yl]phenyl}-3-(5-methylisoxazol-3-yl)urea]
IC50 [1]: 12 nM | IC50 [2]: 218 nM | IC50 [3]: 76 nM | PI3Ka IC50 [4]: 5300 nM

Cn1ccc(NC(=O)Nc2ccc(-c3nc(N4CC5CCC(C4)O5)nc4c3C(=O)N(C3CCOCC3)CC(C)(C)O4)cc2)n1 [Example 16, 1-{4-[8,8-dimethyl-2-(8-oxa-3-azabicyclo[3.2.1]oct-3-yl)-5-oxo-6-(tetrahydropyran-4-yl)-5,6,7,8-tetrahydro-9-oxa-1,3,6-triazabenzocyclohepten-4-yl]phenyl}-3-(1-methyl-1H-pyrazol-3-yl)urea]
IC50 [1]: 19 nM | IC50 [2]: 527 nM | IC50 [3]: 269 nM | PI3Ka IC50 [4]: >10000 nM

CCN1CC(C)(C)Oc2nc(N3CC4CCC(C3)O4)nc(-c3ccc(NC(=O)Nc4cccc(OC(F)F)c4)cc3)c2C1=O [Example 18, 1-(3-difluoromethoxyphenyl)-3-{4-[6-ethyl-8,8-dimethyl-2-(8-oxa-3-azabicyclo[3.2.1]oct-3-yl)-5-oxo-5,6,7,8-tetrahydro-9-oxa-1,3,6-triazabenzocyclohepten-4-yl]phenyl}urea]
IC50 [1]: 25 nM | IC50 [2]: 63 nM | IC50 [3]: 29 nM | PI3Ka IC50 [4]: 7570 nM

CCN1CC(C)(C)Oc2nc(N3CC4CCC(C3)O4)nc(-c3ccc(NC(=O)Nc4ccc(F)cc4F)cc3)c2C1=O [Example 19, 1-(2,4-difluorophenyl)-3-{4-[6-ethyl-8,8-dimethyl-2-(8-oxa-3-azabicyclo[3.2.1]oct-3-yl)-5-oxo-5,6,7,8-tetrahydro-9-oxa-1,3,6-triazabenzocyclohepten-4-yl]phenyl}urea]
IC50 [1]: 32 nM | IC50 [2]: 122 nM | IC50 [3]: 28 nM | PI3Ka IC50 [4]: 6219 nM

CN1CC(C)(C)Oc2nc(N3CC4CCC(C3)O4)nc(-c3ccc(NC(=O)Nc4ccc(N5C6CCC5COC6)nc4)c(F)c3)c2C1=O [Example 245, 1-{2-Fluoro-4-[6,8,8-trimethyl-2-(8-oxa-3-azabicyclo[3.2.1]oct-3-yl)-5-oxo-5,6,7,8-tetrahydro-9-oxa-1,3,6-triazabenzocyclohepten-4-yl]phenyl}-3-[6-(3-oxa-8-azabicyclo[3.2.1]oct-8-yl)pyridin-3-yl]urea]
IC50 [1]: 63 nM | IC50 [3]: 67 nM | PI3Ka IC50 [4]: >10000 nM
